# Laboratory results published in patent publication US10183950B2, “Thienopyrimidine inhibitors of atypical protein kinase C” (Cancer Research Technology Limited, priority 2011, dated 2019).
# pIC50: −log10 of the molar value.
# Biological target: T1, kinase-domain human PKCι (Homo sapiens, UniProt P41743)
# T1 construct: Recombinant, kinase-domain human PKCι is expressed and purified in-house; made in house
# T1 sequence (P41743 254-522 limits assumed): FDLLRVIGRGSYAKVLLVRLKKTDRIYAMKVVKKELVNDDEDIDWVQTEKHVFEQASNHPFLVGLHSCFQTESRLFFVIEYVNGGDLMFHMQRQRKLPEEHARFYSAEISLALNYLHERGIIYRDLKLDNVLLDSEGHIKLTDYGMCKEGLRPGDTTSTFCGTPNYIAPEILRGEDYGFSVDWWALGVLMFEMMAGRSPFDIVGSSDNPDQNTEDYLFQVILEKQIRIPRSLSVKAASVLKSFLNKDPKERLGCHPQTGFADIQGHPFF
# Experiment: PKCι IC50 IMAP fluorescence polarisation assay, kinase-domain enzyme
# Assay type: biochemical
# Conditions: kinase domain PKCi at 2 μM ATP; read-out: IC50 in IMAP assay against kinase domain PKCi
# Description: Assays are based on the ability of PKCι to phosphorylate a commercially available peptide substrate in vitro. […] Recombinant, full-length human PKCι expressed in Sf21 insect cells is also commercially available. Recombinant, kinase-domain human PKCι is expressed and purified in-house.
# The procedure below explains how dose response curves for inhibitors of PKCι are obtained.
# Compounds to be tested are dissolved in 100% DMSO. […] 1 μl is plated into 384 well black low-binding flat bottomed assay plates which are used immediately. Dilutions and additions of compound to assay plates are carried out using Matrix WellMate® and Matrix PlateMate® Plus liquid handling systems.
# The final concentration of peptide substrate in the assay is 100 nM. […] Relevant controls are included, namely no compound and no enzyme. […] The reaction is allowed to incubate for 60 minutes at room temperature, before the reaction is stopped and developed by the addition of 20 μl IMAP™ development reagent (Molecular Devices). IMAP development reagent consists of 0.25% (v/v) IMAP progressive binding reagent, 17% (v/v) IMAP progressive binding buffer A and 3% (v/v) IMAP progressive binding buffer B. The plates are then incubated for 2 hours at room temperature before being read using an appropriate plate reader, for example a Molecular Devices HT Analyst or a BMG Pherastar.
row,SMILES,pIC50
1,"NCCNc1nc(-c2ccncc2)nc2cc(-c3ccccc3)sc12 [compound 313, N*1*-(6-Phenyl-2-pyridin-4-yl-thieno[3,2-d]pyrimidin-4-yl)-ethane-1,2-diamine]",4.40 to 5.00
2,"Clc1cccc2sc3c(N[C@@H]4CCNC4)nc(-c4ccncc4)nc3c12 [compound 384, (9-Chloro-2-pyridin-4-yl-benzo[4,5]thieno[3,2-d]pyrimidin-4-yl)-(R)-pyrrolidin-3-yl-amine]",5.00 to 6.00
3,"CC(C)(C)c1cc2nc(-c3ccncc3)nc(NCCN)c2s1 [compound 311, N*1*-(6-tert-Butyl-2-pyridin-4-yl-thieno[3,2-d]pyrimidin-4-yl)-ethane-1,2-diamine]",4.40 to 5.00
4,"Cc1csc2c(N[C@@H]3CCNC3)nc(-c3ccncc3)nc12 [compound 312, (7-Methyl-2-pyridin-4-yl-thieno[3,2-d]pyrimidin-4-yl)-(R)-pyrrolidin-3-yl-amine]",5.00 to 6.00

# Results, then the compound that gave them:
row,pIC50,SMILES
1,4.40 to 5.00,"C[C@H](N)CNc1nc(-c2ccncc2)nc2cc(-c3ccc(C(C)(C)C)cc3)sc12 [compound 359, (S)-N*1*-[6-(4-tert-Butyl-phenyl)-2-pyridin-4-yl-thieno[3,2-d]pyrimidin-4-yl]-propane-1,2-diamine]"
2,6.00 to 7.00,"C[C@H](N)CNc1nc(-c2ccncc2)nc2c1sc1cccc(Cl)c12 [compound 373, (S)-N*1*-(9-Chloro-2-pyridin-4-yl-benzo[4,5]thieno[3,2-d]pyrimidin-4-yl)-propane-1,2-diamine]"

# Same assay, conditions: kinase domain PKCi at 2 μM ATP; read-out: IC50 in IMAP assay against kinase domain PKCi (Activity)
row,SMILES,pIC50
1,"c1n[nH]cc1-c1nc(N[C@@H]2CCNC2)c2c3c(sc2n1)CCCC3 [compound 189, [2-(1H-Pyrazol-4-yl)-5,6,7,8-tetrahydro-benzo[4,5]thieno[2,3-d]pyrimidin-4-yl]-(R)-pyrrolidin-3-yl-amine]",6.00 to 7.00
2,"CC(C)CN1CCN(c2nc(-c3ccncc3)nc3sc4c(c23)CCCC4)CC1 [compound 134, 4-(4-Isobutyl-piperazin-1-yl)-2-pyridin-4-yl-5,6,7,8-tetrahydro-benzo[4,5]thieno[2,3-d]pyrimidine]",4.40 to 5.00
3,"N[C@H](COc1nc(-c2ccncc2)nc2sc3c(c12)CCCC3)Cc1cccc(F)c1 [compound 163, (S)-1-(3-Fluoro-benzyl)-2-(2-pyridin-4-yl-5,6,7,8-tetrahydro-benzo[4,5]thieno[2,3-d]pyrimidin-4-yloxy)-ethylamine]",5.00 to 6.00
4,"COc1ccc(C[C@H](N)COc2nc(-c3ccncc3)nc3sc4c(c23)CCCC4)cc1 [compound 159, (S)-1-(4-methoxy-benzyl)-2-(2-pyridin-4-yl-5,6,7,8-tetrahydro-benzo[4,5]thieno [2,3-d]pyrimidin-4-yloxy)-ethylamine]",5.00 to 6.00
5,"NCCNc1nc(-c2ccnc(F)c2)nc2sc3c(c12)CCCC3 [compound 98, N*1*-[2-(2-Fluoro-pyridin-4-yl)-5,6,7,8-tetrahydro-benzo[4,5]thieno[2,3-d]pyrimidin-4-yl]-ethane-1,2-diamine]",4.40 to 5.00
6,"CC(C)Cc1csc2nc(-c3ccncc3)nc(NC[C@@H](C)N)c12 [compound 30, (R)-N*1*-(5-Isobutyl-2-pyridin-4-yl-thieno[2,3-d]pyrimidin-4-yl)-propane-1,2-diamine]",5.00 to 6.00
7,"Cc1n[nH]c(C)c1-c1nc(N2CCCNCC2)c2c3c(sc2n1)CCCC3 [compound 191, 4-[1,4]Diazepan-1-yl-2-(3,5-dimethyl-1H-pyrazol-4-yl)-5,6,7,8-tetrahydro-benzo[4,5]thieno[2,3-d]pyrimidine]",6.00 to 7.00
8,"CC[C@H](N)COc1nc(-c2ccncc2)nc2sc3c(c12)CCCC3 [compound 150, (S)-1-(2-Pyridin-4-yl-5,6,7,8-tetrahydro-benzo[4,5]thieno[2,3-d]pyrimidin-4-yloxymethyl)-propylamine]",5.00 to 6.00
9,"c1cc(CN2CCN(c3nc(-c4ccncc4)nc4sc5c(c34)CCCC5)CC2)ccn1 [compound 118, 2-Pyridin-4-yl-4-(4-pyridin-4-ylmethyl-piperazin-1-yl)-5,6,7,8-tetrahydro-benzo[4,5]thieno[2,3-d]pyrimidine]",5.00 to 6.00
10,"N[C@H](COc1nc(-c2ccncc2)nc2sc3c(c12)CCCC3)Cc1cccs1 [compound 168, (S)-2-(2-Pyridin-4-yl-5,6,7,8-tetrahydro-benzo[4,5]thieno[2,3-d]pyrimidin-4-yloxy)-1-thiophen-2-ylmethyl-ethylamine]",5.00 to 6.00
11,"C[C@H](N)CNc1nc(-c2ccncc2)nc2sc3c(c12)CCCCC3 [compound 88, (S)-N*1*-(2-Pyridin-4-yl-6,7,8,9-tetrahydro-5H-10-thia-1,3-diaza-benzo[a]azulen-4-yl)-propane-1,2-diamine]",6.00 to 7.00
12,"CCCN1CCN(c2nc(-c3ccncc3)nc3sc4c(c23)CCCC4)CC1 [compound 133, 4-(4-Propyl-piperazin-1-yl)-2-pyridin-4-yl-5,6,7,8-tetrahydro-benzo[4,5]thieno[2,3-d]pyrimidine]",4.40 to 5.00
13,"N[C@H](COc1nc(-c2ccncc2)nc2sc3c(c12)CCCC3)C1CCCCC1 [compound 156, (S)-1-cyclohexyl-2-(2-pyridin-4-yl-5,6,7,8-tetrahydro-benzo[4,5]thieno[2,3-d]pyrimidin-4-yloxy)-ethylamine]",5.00 to 6.00
14,"c1cc(-c2nc(OC[C@H]3CCCCN3)c3c4c(sc3n2)CCCC4)ccn1 [compound 178, 4-((R)-1-Piperidin-2-ylmethoxy)-2-pyridin-4-yl-5,6,7,8-tetrahydro-benzo[4,5]thieno[2,3-d]pyrimidine]",5.00 to 6.00
15,"C[C@H](N)CNc1nc(-c2ccncc2)nc2sc3c(c12)CCCC3 [compound 5, (S)-N*1*-(2-Pyridin-4-yl-5,6,7,8-tetrahydro-benzo[4,5]thieno[2,3-d]pyrimidin-4-yl)-propane-1,2-diamine]",> 7.00

# Other lines, results leading:
row,pIC50,SMILES
1,4.40 to 5.00,"CCCCN1CCN(c2nc(-c3ccncc3)nc3sc4c(c23)CCCC4)CC1 [compound 129, 4-(4-Butyl-piperazin-1-yl)-2-pyridin-4-yl-5,6,7,8-tetrahydro-benzo[4,5]thieno[2,3-d]pyrimidine]"
2,6.00 to 7.00,"CC1CCc2c(sc3nc(-c4ccncc4)nc(NCCN)c23)C1 (centres unmarked) [compound 21, N*1*-(7-Methyl-2-pyridin-4-yl-5,6,7,8-tetrahydro-benzo[4,5]thieno[2,3-d]pyrimidin-4-yl)-ethane-1,2-diamine]"
3,6.00 to 7.00,"C[C@H]1CN(c2nc(-c3ccncc3)nc3sc4c(c23)CCCC4)CCN1 [compound 8, 4-((S)-3-Methyl-piperazin-1-yl)-2-pyridin-4-yl-5,6,7,8-tetrahydro-benzo[4,5]thieno[2,3-d]pyrimidine]"
4,5.00 to 6.00,"Cc1sc2nc(-c3ccncc3)nc(NC[C@@H](C)N)c2c1C [compound 38, (R)-N*1*-(5,6-Dimethyl-2-pyridin-4-yl-thieno[2,3-d]pyrimidin-4-yl)-propane-1,2-diamine]"
5,5.00 to 6.00,"CC[C@H](N)CNc1nc(-c2ccncc2)nc2sc3c(c12)CCCC3 [compound 68, (S)-N*1*-(2-Pyridin-4-yl-5,6,7,8-tetrahydro-benzo[4,5]thieno[2,3-d]pyrimidin-4-yl)-butane-1,2-diamine]"
6,6.00 to 7.00,"CN1CCCN(c2nc(-c3ccncc3)nc3sc4c(c23)CCCC4)CC1 [compound 4, 4-(4-Methyl-[1,4]diazepan-1-yl)-2-pyridin-4-yl-5,6,7,8-tetrahydro-benzo[4,5]thieno[2,3-d]pyrimidine]"
7,4.40 to 5.00,"c1ccc(CN2CCN(c3nc(-c4ccncc4)nc4sc5c(c34)CCCC5)CC2)cc1 [compound 116, 4-(4-Benzyl-piperazin-1-yl)-2-pyridin-4-yl-5,6,7,8-tetrahydro-benzo[4,5]thieno[2,3-d]pyrimidine]"
8,6.00 to 7.00,"c1cc(-c2nc(N3C[C@@H]4C[C@H]3CN4)c3c4c(sc3n2)CCCC4)ccn1 [compound 18, 4-(1S,4S)-2,5-Diaza-bicyclo[2.2.1]hept-2-yl-2-pyridin-4-yl-5,6,7,8-tetrahydro-benzo[4,5]thieno[2,3-d]pyrimidine]"
9,4.40 to 5.00,"Cc1n[nH]c(C)c1-c1nc(NC[C@@H](C)N)c2c3c(sc2n1)CCCC3 [compound 193, (R)-N*1*-[2-(3,5-Dimethyl-1H-pyrazol-4-yl)-5,6,7,8-tetrahydro-benzo[4,5]thieno[2,3-d]pyrimidin-4-yl]-propane-1,2-diamine]"
10,4.40 to 5.00,"Brc1cnccc1CN1CCN(c2nc(-c3ccncc3)nc3sc4c(c23)CCCC4)CC1 [compound 131, 4-[4-(3-Bromo-pyridin-4-ylmethyl)-piperazin-1-yl]-2-pyridin-4-yl-5,6,7,8-tetrahydro-benzo[4,5]thieno[2,3-d]pyrimidine]"
11,4.40 to 5.00,"Brc1ccc(CN2CCN(c3nc(-c4ccncc4)nc4sc5c(c34)CCCC5)CC2)cn1 [compound 128, 4-[4-(6-Bromo-pyridin-3-ylmethyl)-piperazin-1-yl]-2-pyridin-4-yl-5,6,7,8-tetrahydro-benzo[4,5]thieno[2,3-d]pyrimidine]"
